Consider one molecule from article PMC8011931, “Identification, Structure–Activity Relationship, and Biological Characterization of 2,3,4,5-Tetrahydro-1H-pyrido[4,3-b]indoles as a Novel Class of CFTR Potentiators” (Journal of Medicinal Chemistry, 2020).

Read-outs that look alike come from different tables or passages of the source.

For one data set, the target named is F508del-CFTR (Homo sapiens, UniProt P13569, DEL508-508). The experiment in a line: TEER/PD measurements on primary HBE cells from an F508del/F508del CF patient, 24 h co-incubation with corrector. The arrangement: primary HBE cells from an F508del/F508del CF patient; endogenous in cells; host or cells: primary human bronchial epithelial cells, F508del/F508del CF patient. Format: cell-based. Conditions: 39 0.5 μM with ARN23765 10 nM. The method, then:
A similar combination study was conducted on primary HBE cells from an F508del/F508del CF patient. The effect of the compound was assessed with the transepithelial electrical resistance and potential difference (TEER/PD) technique.[41] Epithelia were treated for 24 h with a vehicle, a corrector ARN23765 alone (10 nM), or ARN23765 (10 nM) plus the potentiator 39 (0.5 μM). TEER and PD values were taken at resting, after the addition of apical amiloride, after maximal stimulation of F508del-CFTR activity (with forskolin plus genistein), and after blocking with PPQ-102. For each epithelium, we measured the difference in the short-circuit current, Ieq (calculated from the TEER and PD values), before and after blocking with PPQ-102 (ΔIeq). The results obtained on primary epithelia confirmed that the rescue of CFTR activity by the corrector ARN23765 was not affected by coincubation with the novel potentiator 39 (Figure 7B).
Primary bronchial epithelial cells were cultured as previously described.[58] In brief, epithelial cells were cultured in a serum-free medium (LHC9 mixed with RPMI 1640, 1:1) supplemented with hormones and supplements to support cell number amplification. […] Differentiation of cells to form a tight epithelium was monitored by measuring transepithelial electrical resistance and potential difference with an epithelial voltohmmeter (EVOM1, World Precision Instruments). […]

The nature of data set [1]: Lung tissue distribution after a single oral dose to rats. The class given is in vivo. Conditions: Sprague-Dawley, rat, p.o., 10 mg/kg. The method, then: Taking into account both the encouraging results in rescuing the gating defect in mutant CFTR in both primary and secondary biological assays, and the promising in vivo PK profile, we quantified the amount of compound 39 in rat lung tissue, the main target organ for CF treatment. The lung tissue distribution of potentiator 39 was investigated following administration of a single oral dose of 10 mg/kg to Sprague–Dawley rats. Supported by the data obtained in the pharmacokinetic study after oral administration, two time points (2 and 4 h) were selected for collecting plasma and lung tissue samples. The mean concentration vs. time profiles of compound 39 in plasma and lung tissue are reported in Figure S2 (see the Supporting Information).
Three animals per dose and timing were treated. Compound 39 was dissolved in PEG400/Tween80/saline solution at 10/10/80% in volume and administered orally at a dose of 10 mg/kg. After 120 and 240 min, rats were sacrificed and lungs were immediately dissected, frozen on dry ice, and stored at −80 °C until analysis. Lung samples were homogenized in RIPA buffer (150 mM NaCl, 1.0% Triton X-100, 0.5% sodium deoxycholate, 0.1% sodium dodecyl sulfate, 50 mM Tris, and pH 8.0) and then split into two aliquots kept at −80 °C until analysis. An aliquot was used for compound lung-level evaluations. The second aliquot was kept for protein content evaluation using the bicinchoninic acid assay (Thermo Scientific, Rockford, IL, USA).
Plasma samples were centrifuged at 21,100g for 15 min at 4 °C, while homogenized lung samples were vigorously whirled. An aliquot of each sample was extracted (1:3) with cold CH3CN containing 200 nM of an appropriate internal standard being a close analogue of the parent compound. A calibration curve was prepared in both blank mouse plasma and naïve lung homogenate over a 1 nM to 10 μM range. Three quality controls were prepared by spiking the parent compound in both blank mouse plasma and naïve lung homogenate to 20, 200, and 2000 nM as final concentrations. The calibrators and quality controls were extracted (1:3) with the same extraction solution as the plasma and lung samples. The plasma and lung samples, the calibrators, and quality controls were centrifuged at 3270g for 15 min at 4 °C. The supernatants were further diluted (1:1) with H2O and analyzed by LC/MS–MS on a Waters ACQUITY UPLC/MS TQD system consisting of a TQD mass spectrometer equipped with an electrospray ionization interface and a photodiode array eλ detector. Electrospray ionization was applied in the positive mode. […] All samples (plasma and lung samples, calibrators, and quality controls) were quantified by MRM peak area response factor in order to determine the levels of the parent compound in plasma and lung. […]

Setting [2] is: lung, read-out: concentration in the lungs.

Sequence of F508del-CFTR (P13569 with tags, fused parts or gaps DEL508-508): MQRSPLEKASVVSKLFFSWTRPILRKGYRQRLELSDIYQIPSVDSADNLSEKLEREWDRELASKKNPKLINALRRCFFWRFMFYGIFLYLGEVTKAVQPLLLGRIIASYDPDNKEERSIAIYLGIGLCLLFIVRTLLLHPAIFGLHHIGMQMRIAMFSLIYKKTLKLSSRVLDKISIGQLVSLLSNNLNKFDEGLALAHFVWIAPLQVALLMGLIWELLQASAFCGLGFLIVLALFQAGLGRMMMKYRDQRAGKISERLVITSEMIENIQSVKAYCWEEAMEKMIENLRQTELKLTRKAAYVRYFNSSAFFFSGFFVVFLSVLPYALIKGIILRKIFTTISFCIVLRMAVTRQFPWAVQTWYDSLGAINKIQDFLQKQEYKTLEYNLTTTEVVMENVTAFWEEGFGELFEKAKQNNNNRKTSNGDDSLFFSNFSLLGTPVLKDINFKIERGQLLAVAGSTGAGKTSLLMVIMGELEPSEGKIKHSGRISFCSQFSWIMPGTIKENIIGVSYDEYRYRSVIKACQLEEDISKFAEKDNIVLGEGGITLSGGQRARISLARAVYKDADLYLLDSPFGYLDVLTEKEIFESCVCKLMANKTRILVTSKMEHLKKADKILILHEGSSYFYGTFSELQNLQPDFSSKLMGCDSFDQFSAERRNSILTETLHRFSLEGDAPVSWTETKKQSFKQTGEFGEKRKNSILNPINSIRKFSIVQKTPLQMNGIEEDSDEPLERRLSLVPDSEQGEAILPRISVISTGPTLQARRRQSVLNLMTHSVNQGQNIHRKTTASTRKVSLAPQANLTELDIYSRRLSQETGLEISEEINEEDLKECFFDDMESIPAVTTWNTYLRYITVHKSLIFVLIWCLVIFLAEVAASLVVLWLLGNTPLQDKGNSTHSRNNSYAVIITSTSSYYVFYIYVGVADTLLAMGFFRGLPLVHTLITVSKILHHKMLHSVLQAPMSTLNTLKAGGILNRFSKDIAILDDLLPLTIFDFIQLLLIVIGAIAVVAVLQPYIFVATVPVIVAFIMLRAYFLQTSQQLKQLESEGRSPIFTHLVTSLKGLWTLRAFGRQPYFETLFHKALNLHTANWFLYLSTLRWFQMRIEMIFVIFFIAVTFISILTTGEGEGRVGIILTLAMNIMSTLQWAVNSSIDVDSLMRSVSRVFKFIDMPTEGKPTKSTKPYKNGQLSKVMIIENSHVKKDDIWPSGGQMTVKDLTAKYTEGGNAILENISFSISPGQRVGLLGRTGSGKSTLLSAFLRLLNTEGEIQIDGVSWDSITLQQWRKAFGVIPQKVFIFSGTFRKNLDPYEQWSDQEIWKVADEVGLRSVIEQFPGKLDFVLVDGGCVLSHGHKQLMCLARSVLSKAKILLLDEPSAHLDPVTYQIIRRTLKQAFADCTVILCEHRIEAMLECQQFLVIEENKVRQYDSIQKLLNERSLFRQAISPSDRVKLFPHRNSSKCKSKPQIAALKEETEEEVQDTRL

With `Cc1ccc(F)c2[nH]c3c(c12)CN(C(=O)c1cc(C(F)(F)F)[nH]n1)[C@H](C)C3` [Compound 39, (R)-(6-Fluoro-3,9-dimethyl-1,3,4,5-tetrahydro-2H-pyrido[4,3-b]indol-2-yl)-(5-(trifluoromethyl)-1H-pyrazol-3-yl)methanone], on F508del-CFTR, the “effect on rescue of CFTR activity by the corrector ARN23765 (ΔIeq)” value is listed as “not affected”. Further, in data set [1] (setting [2]), the concentration at 2 h is 4500 ng/g and the concentration at 4 h was 2200 ng/g. In addition, in data set [1] (plasma, read-out: plasma level), the concentration at 2 h worked out at 1030 ng/mL and the concentration at 4 h was determined as 675 ng/mL.
